Holding throughout (assay type): functional
Test [1] concerns Staphylococcus aureus. Nature of the test: Antibacterial activity against Staphylococcus aureus 209P JC-1.
The test system of test [2] is Staphylococcus aureus. Nature of the test: Antibacterial activity against methicillin-resistant Staphylococcus aureus MF490.
Test [3] concerns Staphylococcus aureus. Nature of the test: Antibacterial activity against methicillin-resistant Staphylococcus aureus MSC03571.
In test [4] the test system is Escherichia coli. Briefly: Antibacterial activity against Escherichia coli NIH JC2.
Test [5] relates to Pseudomonas aeruginosa. Nature of the test: Antibacterial activity against Pseudomonas aeruginosa PA01.
The test system of test [6] is Pseudomonas aeruginosa. Nature of the test: Antibacterial activity against Pseudomonas aeruginosa N101.
In test [7] the test system is Pseudomonas aeruginosa. Nature of the test: Antibacterial activity against Pseudomonas aeruginosa GN315.
In test [8] the test system is Pseudomonas aeruginosa. Nature of the test: Antibacterial activity against Pseudomonas aeruginosa isolates.
In test [9] the test system is Staphylococcus aureus. Briefly: Antibacterial activity against methicillin resistant Staphylococcus aureus isolates.

The structures appear in SMILES notation. Values after ≈ are worked out from the molar mass of the structure shown.

Turning to `NCC[C@H](O)C(=O)N[C@@H]1C[C@H](N)[C@@H](O[C@H]2O[C@H](CN)CC[C@H]2N)[C@@H](F)[C@H]1O[C@H]1O[C@H](CO)[C@H](O)[C@H](N)[C@H]1O`, the MIC (usually the least concentration at which growth counts as inhibited) in [1] was determined as 0.06 µg/mL (≈ 0.108 µM); in test [2], 4 µg/mL (≈ 7.21 µM); in [3], 2 µg/mL (≈ 3.61 µM); in test [4], 1 µg/mL (≈ 1.8 µM); in test [5] it was 2 µg/mL (≈ 3.61 µM); in test [6], 0.5 µg/mL (≈ 0.902 µM). In test [7], this compound registered an MIC of 32 µg/mL (≈ 57.7 µM).
Take `NCC[C@H](O)C(=O)N[C@@H]1C[C@H](N)[C@@H](O[C@H]2O[C@H](CN)CC[C@H]2N)[C@@H](N)[C@H]1O[C@H]1O[C@H](CO)[C@H](O)[C@H](N)[C@H]1O`: the MIC is 0.25 µg/mL (≈ 0.453 µM) in test [1]; 4 µg/mL (≈ 7.25 µM) in test [2]; 4 µg/mL (≈ 7.25 µM) in [3]; 2 µg/mL (≈ 3.63 µM) in test [4]; 4 µg/mL (≈ 7.25 µM) in [5]; 1 µg/mL (≈ 1.81 µM) in test [6]. In addition, in test [7], the MIC is more than 64 µg/mL.
With `NCC[C@H](O)C(=O)N[C@@H]1C[C@H](N)[C@@H](O[C@H]2O[C@H](CN)CC[C@H]2N)[C@H](O)[C@H]1O[C@H]1O[C@H](CO)[C@H](O)[C@H](N)[C@H]1O`, the MIC in test [1] turned out to be 0.13 µg/mL (≈ 0.235 µM); in [2], 32 µg/mL (≈ 57.9 µM); in test [3] it was 16 µg/mL (≈ 29 µM); in test [4], 1 µg/mL (≈ 1.81 µM); in test [5], 4 µg/mL (≈ 7.24 µM); in test [6], 0.25 µg/mL (≈ 0.452 µM). In test [7], this compound yielded a minimal inhibitory concentration (MIC) of 32 µg/mL (≈ 57.9 µM).
As to `[N-]=[N+]=N[C@H]1[C@@H](O[C@H]2O[C@H](CO)[C@H](O)[C@H](N)[C@H]2O)[C@H](NC(=O)[C@@H](O)CCN)C[C@H](N)[C@H]1O[C@H]1O[C@H](CN)CC[C@H]1N`, the MIC in [1] amounted to 0.25 µg/mL (≈ 0.433 µM); in [2], 4 µg/mL (≈ 6.92 µM); in test [3], 4 µg/mL (≈ 6.92 µM); in [4] it was 1 µg/mL (≈ 1.73 µM); in test [5], 8 µg/mL (≈ 13.8 µM); in test [6] it was 0.5 µg/mL (≈ 0.866 µM). Further, the MIC in [7] worked out at 128 µg/mL (≈ 222 µM).
`NCC[C@H](O)C(=O)N[C@@H]1C[C@H](N)[C@@H](O[C@H]2O[C@H](CN)CC[C@H]2N)[C@H](O)[C@H]1O[C@H]1O[C@H](CO)[C@H](N)[C@H](N)[C@H]1O`: the MIC is 4 µg/mL (≈ 7.25 µM) in [1]; more than 128 µg/mL in test [2]; more than 128 µg/mL in [3]; 16 µg/mL (≈ 29 µM) in [4]; 64 µg/mL (≈ 116 µM) in test [5]; 8 µg/mL (≈ 14.5 µM) in test [6]. In test [7], this compound came in with an MIC of more than 128 µg/mL.
On to `NCC[C@H](O)C(=O)N[C@@H]1C[C@H](N)[C@@H](O[C@H]2O[C@H](CN)CC[C@H]2N)[C@H](O)[C@H]1O[C@H]1O[C@H](CO)C[C@H](N)[C@H]1O`, for which the MIC in [1] was 0.13 µg/mL (≈ 0.242 µM); in test [2], more than 64 µg/mL; in test [3] it was 64 µg/mL (≈ 119 µM); in test [4], 2 µg/mL (≈ 3.73 µM); in [5] it was 4 µg/mL (≈ 7.45 µM); in test [6], 0.5 µg/mL (≈ 0.932 µM). The MIC in test [7] turned out to be 32 µg/mL (≈ 59.6 µM).
In the case of `NCC[C@H](O)C(=O)N[C@@H]1C[C@H](N)[C@@H](O[C@H]2O[C@H](CN)CC[C@H]2N)[C@@H](O)[C@H]1O[C@H]1O[C@H](CO)[C@H](O)[C@H](N)[C@H]1O`, the minimum inhibitory concentration (MIC) was found to be 0.06 µg/mL (≈ 0.109 µM) in test [1]; 1 µg/mL (≈ 1.81 µM) in test [2]; 1 µg/mL (≈ 1.81 µM) in [3]; 0.5 µg/mL (≈ 0.905 µM) in test [4]; 1 µg/mL (≈ 1.81 µM) in test [5]; 0.25 µg/mL (≈ 0.452 µM) in [6]. For the same compound, in test [7], the lowest concentration to inhibit growth (MIC) was 16 µg/mL (≈ 29 µM). The MIC50 (usually an inhibitory concentration at the 50% level, which refers to growth in some studies and to a panel of isolates in others) came to 1 µg/mL (≈ 1.81 µM) in test [8] and 0.25 µg/mL (≈ 0.452 µM) in test [9]. Besides, the figures for the MIC90 in test [8] and in test [9] were 4 µg/mL (≈ 7.24 µM) and 0.25 µg/mL (≈ 0.452 µM), respectively.
Turning to `NCC[C@H](O)C(=O)N[C@@H]1C[C@H](N)[C@@H](O[C@H]2O[C@H](CN)CC[C@H]2N)[C@H](O)[C@H]1O[C@H]1O[C@@H](CO)[C@@H](O)[C@H](N)[C@H]1O`, the MIC in test [1] stood at 0.06 µg/mL (≈ 0.109 µM); in [2] it was 2 µg/mL (≈ 3.62 µM); in [3], 2 µg/mL (≈ 3.62 µM); in test [4], 1 µg/mL (≈ 1.81 µM); in test [5] it was 2 µg/mL (≈ 3.62 µM); in test [6] it was 0.25 µg/mL (≈ 0.452 µM). The compound also gave an MIC in test [7] of 8 µg/mL (≈ 14.5 µM).
As to `NCC[C@H](O)C(=O)N[C@@H]1C[C@H](N)[C@@H](O[C@H]2O[C@H](CN)CC[C@H]2N)[C@@H](Cl)[C@H]1O[C@H]1O[C@H](CO)[C@H](O)[C@H](N)[C@H]1O`, the MIC in [1] turned out to be 0.13 µg/mL (≈ 0.228 µM); in test [2], 2 µg/mL (≈ 3.5 µM); in test [3], 2 µg/mL (≈ 3.5 µM); in test [4] it was 1 µg/mL (≈ 1.75 µM); in test [5], 4 µg/mL (≈ 7 µM); in test [6], 0.5 µg/mL (≈ 0.876 µM). Further, the MIC in test [7] was more than 32 µg/mL.
Consider `CNC[C@@H]1CC[C@@H](N)[C@@H](O[C@H]2[C@@H](O)[C@@H](O[C@H]3O[C@H](CO)[C@H](O)[C@H](N)[C@H]3O)[C@H](NC(=O)[C@@H](O)CCN)C[C@@H]2N)O1`, for which the MIC amounted to 0.13 µg/mL (≈ 0.229 µM) in [1]; 4 µg/mL (≈ 7.06 µM) in [2]; 1 µg/mL (≈ 1.76 µM) in test [3]; 1 µg/mL (≈ 1.76 µM) in test [4]; 2 µg/mL (≈ 3.53 µM) in test [5]; 0.5 µg/mL (≈ 0.882 µM) in test [6]. The compound further gave an MIC in test [7] of 4 µg/mL (≈ 7.06 µM).
Consider `[N-]=[N+]=N[C@@H]1[C@H](N)[C@@H](O)[C@@H](O[C@@H]2[C@@H](O)[C@H](O[C@H]3O[C@H](CN)CC[C@H]3N)[C@@H](N)C[C@H]2NC(=O)[C@@H](O)CCN)O[C@@H]1CO`, for which the MIC in [1] is 0.13 µg/mL (≈ 0.225 µM); in test [2] it was more than 128 µg/mL; in test [3], 128 µg/mL (≈ 222 µM); in test [4] it was 2 µg/mL (≈ 3.46 µM); in [5], 16 µg/mL (≈ 27.7 µM); in test [6], 0.5 µg/mL (≈ 0.866 µM). The compound also gave an MIC in test [7] of 64 µg/mL (≈ 111 µM).
In the case of `NCC[C@H](O)C(=O)N[C@@H]1C[C@H](N)[C@@H](O[C@H]2O[C@H](CN)CC[C@H]2N)[C@H](O)[C@H]1O[C@H]1O[C@H](CO)[C@@H](O)[C@H](N)[C@H]1O` [ARBEKACIN], the MIC in test [1] amounted to 0.06 µg/mL (≈ 0.109 µM); in [2], 64 µg/mL (≈ 116 µM); in test [3], 16 µg/mL (≈ 29 µM); in [4], 1 µg/mL (≈ 1.81 µM); in test [5] it was 2 µg/mL (≈ 3.62 µM); in test [6], 0.25 µg/mL (≈ 0.452 µM). The compound further yielded an MIC in [7] of 16 µg/mL (≈ 29 µM). For the same compound, the MIC50 in test [8] came to 2 µg/mL (≈ 3.62 µM); in test [9], 0.5 µg/mL (≈ 0.905 µM). In addition, the MIC90 (commonly an inhibitory concentration at the 90% level, which refers to growth in some studies and to a panel of isolates in others) in test [8] worked out at 16 µg/mL (≈ 29 µM); in test [9], 2 µg/mL (≈ 3.62 µM).

Values taken from ChEMBL document CHEMBL1140526, “Effect of varying the 4''-position of arbekacin derivatives on antibacterial activity against MRSA and Pseudomonas aeruginosa” (2007).
